Key:
Format in all cases: in vivo
[1] = tested on: type II collagen arthritis; assay: mouse type II collagen arthritis model: body weight, daily clinical arthritis scores (AUC), incidence
[2] = tested on: type II collagen arthritis; assay: histopathology of paws and knees in mouse type II collagen arthritis model; details: for Histopathology Summed Scores (All Joints): mean (SE)
Description: (§1) On study day 43, mice were euthanized and necropsy specimens were obtained. After terminal bleeds, animals were euthanized by cervical dislocation. Fore paws, hind paws, and knees were harvested and placed in 10% neutral buffered formalin (NBF) for microscopy. Spleens were harvested from a subset of mice and processed for splenocytes.
After 1-2 days in fixative and 4-5 days in 5% formic acid for decalcification, tissues were trimmed, and processed for paraffin embedding. Paws were embedded in paraffin in the frontal plane and knees were embedded with the patella facing down. Ankles, if left attached to the hind paw, were also embedded in the frontal plane but in some instances were detached and sectioned in the sagittal plane for special purposes. Left/right pairs were typically embedded in the same block. Sections were then cut and stained with toluidine blue.
When scoring paws or ankles from mice with lesions of type II collagen arthritis, severity of changes as well as number of individual joints affected was considered. When only one to three joints of the paws or ankles out of a possibility of numerous metacarpal/metatarsal/digit or tarsal/tibiotarsal joints was affected, an arbitrary assignment of a maximum score of 0.5, 1, 2 or 3 for parameters below was given depending on severity of changes. If more than three joints were involved, the criteria below were applied to the most severely affected/majority of joints. In the case of knees, severity of changes in medial and lateral, as well as femoropatellar spaces, were considered.
The following parameters were scored according to the indicated criteria: Inflammation Score, Pannus Score, Cartilage Damage Score, Bone Resorption Score, and Periosteal New Bone Formation Score and Measurements. Unless otherwise indicated, criteria apply to both paws and knees. Mean values for each parameter are determined separately for the paws, knees, and the entire animal (if applicable).
The Inflammation Score was determined based on the following criteria for Paw Score and Knee Score.
The Paw Score was classified based on the following criteria: 0=Normal; 0.5=Very minimal, affects only 1 joint or minimal multifocal periarticular infiltration of inflammatory cells; 1=Minimal infiltration of inflammatory cells in synovium and periarticular tissue of affected joints; 2=Mild infiltration of inflammatory cells. If referring to paws, generally restricted to affected joints (1-3 affected); 3=Moderate infiltration with moderate edema. If referring to paws, restricted to affected joints, generally 3-4 joints and the wrist or ankle; 4=Marked infiltration affecting most areas with marked edema, 1 or 2 unaffected joints may be present; 5=Severe diffuse infiltration with severe edema affecting all joints (to some extent) and periarticular tissues.
The Knee Score was classified based on the following criteria: 0=Normal; 0.5=Very minimal, affects only one area of the synovium or minimal multifocal periarticular infiltration of inflammatory cells; 1=Minimal infiltration of inflammatory cells in synovium and periarticular tissue of affected synovial areas; 2=Mild diffuse infiltration of inflammatory cells; 3=Moderate diffuse infiltration of inflammatory cells; 4=Marked diffuse infiltration of inflammatory cells; 5=Severe diffuse infiltration of inflammatory cells.
The inflammatory infiltrate in mice and rats with type II collagen arthritis consists of neutrophils and macrophages with smaller numbers of lymphocytes when the lesions are in the acute to subacute phase. Tissue edema and neutrophil exudates within the joint space are common in the acute to subacute phase. As the inflammation progresses to chronic, mononuclear inflammatory cells (monocytes, lymphocytes) predominate and fibroblast proliferation, often with deposition of metachromatic matrix, occurs in synovium and periarticular tissue. Exudate is less common in the joint space.

[3] = target: T1, BTK (Mus musculus, UniProt P35991); assay: BTK occupancy in splenocytes collected after euthanasia; details: with vs without MTX co-treatment
T1 construct: from tissue; host or cells: splenocytes from spleens of collagen-induced-arthritis DBA/1 mice
T1 sequence (P35991 whole entry): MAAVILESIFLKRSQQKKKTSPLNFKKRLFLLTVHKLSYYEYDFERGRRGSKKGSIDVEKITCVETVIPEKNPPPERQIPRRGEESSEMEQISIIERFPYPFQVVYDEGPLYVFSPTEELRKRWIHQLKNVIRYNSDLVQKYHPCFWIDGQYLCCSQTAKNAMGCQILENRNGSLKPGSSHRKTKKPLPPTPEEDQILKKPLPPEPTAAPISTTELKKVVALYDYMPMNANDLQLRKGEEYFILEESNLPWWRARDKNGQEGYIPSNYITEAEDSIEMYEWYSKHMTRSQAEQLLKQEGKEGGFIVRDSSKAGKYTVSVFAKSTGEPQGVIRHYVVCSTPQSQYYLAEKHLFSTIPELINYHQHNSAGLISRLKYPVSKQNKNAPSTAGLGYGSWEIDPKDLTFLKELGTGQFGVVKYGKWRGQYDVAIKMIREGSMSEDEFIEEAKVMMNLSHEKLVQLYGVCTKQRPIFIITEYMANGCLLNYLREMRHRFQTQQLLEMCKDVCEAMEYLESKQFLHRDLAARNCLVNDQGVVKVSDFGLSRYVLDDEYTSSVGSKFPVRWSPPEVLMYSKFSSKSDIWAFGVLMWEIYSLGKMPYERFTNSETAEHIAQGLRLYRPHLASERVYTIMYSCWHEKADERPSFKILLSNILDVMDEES
Description: as §1

[4] = 5 mg/kg Formula (2) alone, vs vehicle controls
[5] = Group 3: MTX vehicle + BTK inhibitor of formula (2) 1 mg/kg PO QD d28-43
[6] = Group 4: MTX vehicle + BTK inhibitor of formula (2) 5 mg/kg PO QD d28-43
[7] = Group 5: MTX 0.3 mg/kg PO QD d18-43 + BTK inhibitor of formula (2) vehicle
[8] = Group 6: MTX 0.5 mg/kg PO QD d18-43 + BTK inhibitor of formula (2) vehicle

Compound: CC#CC(=O)N1CCC[C@H]1c1nc(-c2ccc(C(=O)Nc3ccccn3)cc2)c2c(N)nccn12 [BTK inhibitor of Formula (2), (S)-4-(8-amino-3-(1-(but-2-ynoyl)pyrrolidin-2-yl)imidazo[1,5-c]pyrazin-1-yl)-N-(pyridin-2-yl)benzamide]
- disease-induced body weight loss (percent change from baseline) ([1]; 1 mg/kg Formula (2), vs vehicle controls, Day 36): significantly inhibited
- daily clinical arthritis scores over time [1, 4]: differed significantly
- inhibition of absolute body weight loss at study termination [1, 4]: 66%
- reduction of arthritis scores AUC Days 18-43 [1, 4]: 62%
- disease-induced body weight loss (percent change from baseline) ([1]; 5 mg/kg Formula (2), vs vehicle controls, Days 32-38 and 43): significantly inhibited
- clinical arthritis scores ([1]; 5 mg/kg Formula (2), vs vehicle controls, Study Days 30-43): significantly reduced
- Change in Body Weight (g) Day 18-43 [1, 5]: -0.19 g
- Clinical Arthritis Score AUC Day 18-43 [1, 5]: 61.41
- Clinical Arthritis Score AUC Day 28-43 [1, 5]: 54.81
- Percent Incidence [1, 5]: 100%
- Change in Body Weight (g) Day 18-43 [1, 6]: *0.12 g
- Clinical Arthritis Score AUC Day 18-43 [1, 6]: *27.30
- Clinical Arthritis Score AUC Day 28-43 [1, 6]: *21.27
- Percent Incidence ([1]; Group 4: MTX vehicle + BTK inhibitor of formula (2) 5 mg/kg PO QD d28-43, at termination, 5 mg/kg): 42%
- Percent Incidence ([1]; Group 4: MTX vehicle + BTK inhibitor of formula (2) 5 mg/kg PO QD d28-43, at termination, listed as BTK inhibitor of formula (2), 5 mg/kg): 42%
- reduction of knee bone resorption [2, 4]: 90%
- reduction of knee inflammation [2, 4]: 72%
- reduction of knee pannus formation [2, 4]: 85%
- reduction of summed knee histopathology scores [2, 4]: 74%
- reduction of summed paw histopathology scores [2, 4]: 72%
- reduction of summed six-joint mean histopathology scores [2, 4]: 73%
- reductions of all paw histopathology parameters [2, 4]: 59-82%
- reductions of all six-joint mean histopathology parameters [2, 4]: 63-82%
- reductions of paw and six-joint mean periosteal bone widths [2, 4]: 82-83%
- Histopathology Summed Scores (All Joints) [2, 5]: 11.03 (1.01)
- Histopathology Summed Scores (All Joints) [2, 6]: *4.15 (1.01)
- Btk occupancy in splenocytes [3]: the same in the presence or absence of MTX

Compound: CN(Cc1cnc2nc(N)nc(N)c2n1)c1ccc(C(=O)N[C@@H](CCC(=O)O)C(=O)O)cc1 [MTX, (2S)-2-[(4-{[(2,4-Diaminopteridin-6-yl)methyl](methyl)amino}benzoyl)amino]pentanedioic acid, reference compound]
- daily clinical arthritis scores over time ([1]; 0.5 mg/kg MTX alone, vs vehicle controls): differed significantly
- clinical arthritis scores ([1]; 0.5 mg/kg MTX, vs vehicle controls, Days 25-29): significantly reduced
- Change in Body Weight (g) Day 18-43 [1, 7]: -1.16 g
- Clinical Arthritis Score AUC Day 18-43 [1, 7]: 51.72
- Clinical Arthritis Score AUC Day 28-43 [1, 7]: 48.82
- Percent Incidence [1, 7]: 100%
- Change in Body Weight (g) Day 18-43 [1, 8]: -0.83 g
- Clinical Arthritis Score AUC Day 18-43 [1, 8]: 46.79
- Clinical Arthritis Score AUC Day 28-43 [1, 8]: 45.51
- Percent Incidence [1, 8]: 100%
- Histopathology Summed Scores (All Joints) [2, 7]: 10.24 (1.66)
- Histopathology Summed Scores (All Joints) [2, 8]: 8.46 (1.36)
